Reference: PMC10428205, “Cytotoxicity of Ruthenium(II) Arene Complexes Containing Functionalized Ferrocenyl β-Diketonate Ligands” (Organometallics, 2023)

Experiments:
[1] = system: MIA PaCa-2; experiment: Comet assay of cellular DNA damage; format: cell-based, human; conditions: MIA PaCa-2, 48 h incubation, varying concentration
Protocol: Complexes 2, 4, and 7 were chosen due to their range in cytotoxicity, where complex 2 is moderately active and complexes 4 and 7 have the highest activities. Their ability to induce single-strand breakage (SSB) of DNA with varying concentrations of compound was studied after incubation with MIA PaCa-2 cells for 48 h. After harvesting the cells, quantification of the levels of SSB of DNA were assessed by using the alkaline comet assay.
Samples were then taken up in Optima high purity nitric acid, diluted to 10 mL with 1mL rhodium internal standard and 9 mL 18.2 Ultrapure water. The elemental contents of the samples were determined using ICP-MS-QQQ Thermo TQ spectrometer. Measurement of iron mass 56 and ruthenium isotope mass 100 was conducted by comparing solutions of known concentration and intensities. A series of standard calibration curves allows the concentration of each element to be determined. […]
The media -free wells were then trypsinized (1 mL) for 3 -5 minutes and then neutralized with high glucose DMEM (1 mL), these were all added to the centrifuge t ube and centrifuged at 1500 rpm for 3 minutes. […] Staining solution (150 mL) was added to each slide and the Comets analysed using Comet assay III software. A minimum of 50 different comets were scored and the computer outputs an average on head and tail intensities and tail moments. […]

[2] = system: MIA PaCa-2; experiment: Whole cell uptake by ICP-MS; format: cell-based, human; conditions: MIA PaCa-2, 10 μM, 48 h; for Whole cell uptake of Fe: ICP-MS
Protocol: Cellular assays were conducted against human pancreatic carcinoma (MIA PaCa-2), human colorectal carcinoma p53-wildtype (HCT116 p53+/+), and human non-cancerous epithelial retinal cells (ARPE-19). The ARPE-19 cells were obtained from the American Type Culture Collection and provided by the University of Huddersfield. All cell lines were routinely maintained as monolayer cultures in appropriate complete medium and maintained in either T-25 or T-75 flasks at 37 °C and 5% CO2. MIA PaCa-2 and ARPE-19 cells were cultured in high glucose DMEM-F12 medium containing 10% foetal calf serum, and HCT116 p53+/+ was cultured in RPMI 1640 supplemented with […]
10% foetal calf serum. […]
Cell uptake assays were conducted using MIA PaCa-2 cells and these were maintained as described above. All assays were conducted in 6-well plates and cell concentrations of 1 x 10^5 cells/ well in 2 mL of complete cell media. These cell suspensions were added to the wells and incubated at 37°C and 5% CO2 for 24 h. The media was then removed, and 2 mL of media/copper compound was added to each well. For each compound, a concentration of 10 µM of ligands L1, L2, L4, L7 or complexes C1, C2, C4, C7 were used. The cells were incubated with the complexes for 48 h, before removing and discarding the media. The cell monolayers were then individually washed with PBS (3 x 1 mL) and all waste discarded. 0.25% Trypsin-EDTA (0.5 mL) was then added until the cells were removed from the surface of the wells and then diluted with media (1.5 mL). The contents of each well were transferred to separate Falcon tubes and centrifuged at 1500 rpm for 5 min. The supernatant was removed, the cell pellets were resuspended in PBS (1 mL) and centrifuged again at 1500 rpm for 5 min (this was completed 3 times). On the final time, the cells were counted before the last centrifuge and then pelleted and store in the freezer for ICP-MS analysis. All assays were conducted in triplicate.
Samples were then taken up in Optima high purity nitric acid, diluted to 10 mL with 1mL rhodium internal standard and 9 mL 18.2 Ultrapure water. The elemental contents of the samples were determined using ICP-MS-QQQ Thermo TQ spectrometer. Measurement of iron mass 56 and ruthenium isotope mass 100 was conducted by comparing solutions of known concentration and intensities. A series of standard calibration curves allows the concentration of each element to be determined. The standards were prepared by weight using 1000 mg/kg reference solutions. Operating conditions: cooling flow rate, 14.0 L/min, auxiliary gas flow rate, 0.8 L/min; sampling Depth 5 mm, additional gas flow 75 %, spray chamber 2.7 degrees, nebulizer flow rate, 1.144 L/min pump speed 15 rpm, RF power of 1,550 W.
Analysis of cellula r DNA damage by the Comet assay […]

[3] = Cyclic voltammetry; conditions: for E0′ (Fc*/Fc*+): 0.1 M TBAPF6 in acetonitrile, Fc/Fc+ = 0.40 V internal standard; for E0′ (Fc*/Fc*+) / EP Red: vs SCE; for EP Red: irreversible reduction; for E0’ (Fc*/Fc*+) at 0.05 V/s: scan speed 0.05 V/s; for E0’ (Fc*/Fc*+) at 0.10 V/s: scan speed 0.10 V/s; for E0’ (Fc*/Fc*+) at 0.25 V/s: scan speed 0.25 V/s

E0′ (Fc*/Fc*+) [3] [V] | EP Red [3] | E0’ (Fc*/Fc*+) at 0.05 V/s [3] [V] | E0’ (Fc*/Fc*+) at 0.10 V/s [3] [V] | E0’ (Fc*/Fc*+) at 0.25 V/s [3] [V] | Structure (SMILES) | single-strand breakage (SSB) of DNA [1] | Whole cell uptake of Fe [2] [ng Fe/10^6 cells] | increase in Fe uptake compared to the control [2]
 |  |  |  |  | [NH2][Pt]([NH2])([Cl])[Cl] [CDDP, cisplatin, reference compound] | dose-dependent SSB similar to that of complex 4 |  | 
0.63 | –1.98 V | 0.63 | 0.62 | 0.63 | CC(O)=CC(=O)[c-]1cccc1.[Fe+2].c1cc[cH-]c1 [Complex L1] |  | 2661 ± 974 | 
0.63 | –1.73 V | 0.63 | 0.63 | 0.63 | O=C(C=C(O)c1ccccc1)[c-]1cccc1.[Fe+2].c1cc[cH-]c1 [Complex L2] |  | 2524 ± 458 | 
0.71 | –1.42 V | 0.71 | 0.71 | 0.71 | O=C(C=C(O)C(F)(F)F)[c-]1cccc1.[Fe+2].c1cc[cH-]c1 [Complex L7] |  | 1536 ± 202 | ca. 1.7 ×
